Laboratory results reported in ChEMBL document CHEMBL1201862, “PubChem BioAssay data set” (2004).
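Exposure lasted 48 hours, with cells grown in 96-well plates and compounds tested at five concentrations. Here, GI50 denotes the concentration required for 50% inhibition of growth.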 The source made the active and inactive calls. Rule as the data show it: active = GI50 up to about 1.1 µM and inactive = higher.

Legend:
Test in all cases: DTP human tumour cell line panel, 48 h
KM12 = test system: KM12
U-251 = test system: U-251
UACC-62 = test system: UACC-62
OVCAR-3 = test system: OVCAR-3
NCI-H522 = test system: NCI-H522
RXF 393 = test system: RXF 393
MDA-MB-231 = test system: MDA-MB-231
NCI-H23 = test system: NCI-H23
BT-549 = test system: BT-549
SK-MEL-28 = test system: SK-MEL-28
ACHN = test system: ACHN
OVCAR-5 = test system: OVCAR-5
SK-OV-3 = test system: SK-OV-3
SF-539 = test system: SF-539
SF-295 = test system: SF-295
T47D = test system: T47D
SN12C = test system: SN12C
HT-29 = test system: HT-29
OVCAR-8 = test system: OVCAR-8
MDA-N = test system: MDA-N

Measured: GI50

O=C(O)CCNc1ccccc1C(=O)O
inactive: KM12 > 100 µM | U-251 > 100 µM | UACC-62 > 100 µM | OVCAR-3 > 100 µM | NCI-H522 > 100 µM | RXF 393 > 100 µM | MDA-MB-231 > 100 µM | NCI-H23 > 100 µM | BT-549 > 100 µM | SK-MEL-28 > 100 µM | ACHN > 100 µM | OVCAR-5 > 100 µM | SK-OV-3 > 100 µM | SF-539 > 100 µM | SF-295 > 100 µM | T47D > 100 µM | SN12C > 100 µM | HT-29 > 100 µM | OVCAR-8 > 100 µM | MDA-N > 100 µM

CC(=O)OC1CCC2(C)C(=CCC3C4CCC5(OC6CC(C)CN(C(C)=O)C6C5C)C(C)=C4C(=O)C32)C1 (stereo not given)
inactive: KM12 16.7 µM | U-251 16.2 µM | UACC-62 5.35 µM | OVCAR-3 18.8 µM | NCI-H522 14.9 µM | RXF 393 16.6 µM | MDA-MB-231 17.2 µM | NCI-H23 15 µM | BT-549 15 µM | SK-MEL-28 > 100 µM | ACHN 25.5 µM | OVCAR-5 19.2 µM | SK-OV-3 26.5 µM | SF-539 20.4 µM | SF-295 19.1 µM | T47D 7.76 µM | SN12C 21.6 µM | HT-29 19.9 µM | OVCAR-8 18.5 µM | MDA-N 23.6 µM

CC1Cc2c(cc(N)nc2Br)NC1=O (stereo not given)
inactive: KM12 > 100 µM | U-251 > 100 µM | UACC-62 > 100 µM | OVCAR-3 > 100 µM | NCI-H522 > 100 µM | RXF 393 81.8 µM | MDA-MB-231 > 100 µM | NCI-H23 > 100 µM | BT-549 92.9 µM | SK-MEL-28 > 100 µM | ACHN 64.3 µM | OVCAR-5 > 100 µM | SK-OV-3 > 100 µM | SF-539 > 100 µM | SF-295 > 100 µM | T47D 42.7 µM | SN12C > 100 µM | HT-29 > 100 µM | OVCAR-8 > 100 µM | MDA-N 46.1 µM

COC(=O)CCCc1c(-c2[nH]c3ccccc3c2CCCC(=O)OC)[nH]c2ccccc12
inactive: KM12 > 100 µM | U-251 > 100 µM | UACC-62 > 100 µM | OVCAR-3 > 100 µM | NCI-H522 > 100 µM | RXF 393 > 100 µM | MDA-MB-231 > 100 µM | NCI-H23 > 100 µM | BT-549 > 100 µM | SK-MEL-28 > 100 µM | ACHN > 100 µM | OVCAR-5 > 100 µM | SK-OV-3 > 100 µM | SF-539 > 100 µM | SF-295 > 100 µM | T47D > 100 µM | SN12C > 100 µM | HT-29 > 100 µM | OVCAR-8 > 100 µM | MDA-N > 100 µM

COc1ccc2nc3cc(Cl)ccc3c(Nc3ccccc3-c3ccccc3Nc3c4ccc(Cl)cc4nc4ccc(OC)cc34)c2c1
inactive: KM12 22.7 µM | U-251 37.3 µM | UACC-62 27.5 µM | OVCAR-3 45.4 µM | NCI-H522 8.43 µM | RXF 393 14.9 µM | MDA-MB-231 26.9 µM | NCI-H23 21.7 µM | BT-549 15.9 µM | SK-MEL-28 41.8 µM | ACHN > 29.4 µM | OVCAR-5 37.8 µM | SK-OV-3 > 75.7 µM | SF-539 24.2 µM | SF-295 33 µM | T47D 13.1 µM | SN12C 32.2 µM | HT-29 10.5 µM | OVCAR-8 28.5 µM | MDA-N 3.43 µM

Clc1ccc(C(c2ccccc2Cl)C(Cl)Cl)cc1 (stereo not given) [MITOTANE]
inactive: KM12 16 µM | U-251 16.6 µM | UACC-62 14.8 µM | OVCAR-3 15.6 µM | NCI-H522 16.7 µM | RXF 393 11.6 µM | MDA-MB-231 3.39 µM | NCI-H23 19 µM | BT-549 1.59 µM | SK-MEL-28 18.9 µM | ACHN 14.8 µM | OVCAR-5 18 µM | SK-OV-3 18.1 µM | SF-539 17.1 µM | SF-295 16.2 µM | T47D 1.64 µM | SN12C 16.7 µM | HT-29 16.8 µM | OVCAR-8 20.7 µM | MDA-N 18 µM
